For 15 compounds, TGI and GI50 results are on record in PubChem BioAssay (NCI).

What all share (assay): growth of human tumour cells (NCI), 48 h
The subject of assay [1] is SN12C renal.
Assay [2] deals with SF-268 CNS.
The subject of assay [3] is NCI-H23 lung.
Assay [4] deals with UACC-257 melanoma.
Assay [5] deals with SW-620 colon.
Assay [6] concerns HOP-62 NSCLC.
Assay [7] concerns RXF 393 renal.
Assay [8] has as its system OVCAR-5 ovarian.
Assay [9] concerns MALME-3M melanoma.

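Following 48 hours of exposure in 96-well plates, responses at five concentrations were used to interpolate endpoints linearly. GI50 = concentration required for 50% inhibition of growth. Definition used: TGI = concentration required for complete inhibition of growth.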 Bounds are passed on as bounds.

Consider `COC(=O)C(C(=O)C(=O)Nc1ccccc1OC)c1csc(-n2nc(-c3ccccc3)cc2-c2ccccc2)n1` (configuration not stated), for which the TGI in assay [1], in [2], in [3], in assay [4], in assay [5] and in [6] was > 100 µM in each case. The TGI in assay [7], in assay [8] and in assay [9] was > 100 µM each time.

Turning to `Cc1ccc(C(=O)/C=C/c2ccccc2Cl)cc1`, the TGI in [1] was 39.3 µM; in [2], 48 µM; in assay [3], 40.1 µM; in [4] it was 33.6 µM; in assay [5], 27 µM; in assay [6], > 100 µM. For the same compound, the TGI is 41.9 µM in [8] and 53.6 µM in [9].

On to `N/C(=N\C(=S)N1CCCCC1)N1CCCCC1`, for which the TGI in [1], in assay [2], in assay [3], in assay [4], in assay [5] and in assay [6] was > 100 µM each time. The TGI in assay [7], in [8] and in assay [9] was > 100 µM in each case.

Take `O=C(Nc1cc(C(F)(F)F)ccc1Cl)C(=O)C(C(=O)c1ccc2ccccc2c1)C1OC(=O)c2ccccc21` (configuration not stated): the TGI in assay [1] is 21 µM; in [2], 52.8 µM; in assay [3], 17.8 µM; in [4], 26 µM; in assay [5] it was 37.8 µM; in assay [6], 16.1 µM. Further, the TGI is 8.11 µM in assay [7], 24.5 µM in assay [8] and 27.4 µM in assay [9].

Turning to `CC1CC(=O)C(C(O)CC2CC(=O)N(c3ccccc3)C(=O)C2)C(C)C1` (configuration not stated), the TGI in [1], in assay [2], in [3], in [4], in [5] and in assay [6] was > 100 µM throughout. Also, the TGI in [7], in [8] and in assay [9] was > 100 µM in each case.

For `O=C1CCC(=O)c2cc(Br)ccc2N1`, the TGI in assay [1], in [2], in [3], in assay [4], in [5] and in assay [6] was > 100 µM in each case. The TGI in assay [7], in [8] and in [9] was > 100 µM each time.

As to `CN(C)CC1(C)CC/C(=C\c2ccc3c(c2)OCO3)C1=O` (configuration not stated), the TGI in assay [1], in assay [2], in assay [3], in [4], in assay [5] and in [6] was > 100 µM each time. The TGI in assay [7], in [8] and in assay [9] was > 100 µM throughout.

`CC(=O)O[C@H]1CCC2[C@@H]3CCC4C(=O)c5oncc5C[C@]4(C)C3CC[C@@]21C` (some centres not stated): the TGI in assay [1], in assay [2], in assay [3], in assay [4], in assay [5] and in [6] was > 100 µM throughout. Moreover, the TGI in assay [7], in assay [8] and in assay [9] was > 100 µM throughout.

With `O=C(O)C1Cc2nc[nH]c2CN1` (configuration not stated), the TGI in [1], in assay [2], in assay [3], in assay [4], in assay [5] and in assay [8] was > 100 µM in each case. The TGI in assay [9] was > 100 µM.

Regarding `O=C(C#Cc1c[nH]c(=O)[nH]c1=O)c1ccccc1`, the TGI in [1] amounted to 15.9 µM; in assay [2], 26.8 µM; in assay [3], 27.6 µM; in assay [4] it was 23.8 µM; in assay [5], 18.9 µM; in assay [6], 36.1 µM. In addition, the results for the TGI in assay [7], in [8] and in assay [9] were 6.05 µM, 33.1 µM and 15.2 µM, respectively.

As to `COC1OC(C)C(OC(=O)C(C)(C)C)C(C)(O)C1O` (configuration not stated), the TGI in assay [1], in [2], in assay [3], in assay [4], in assay [5] and in [6] was > 100 µM each time. Further, the TGI in assay [7], in [8] and in [9] was > 100 µM each time.

In the case of `O=C1OC(=O)C2C3CCC(O3)C12` (configuration not stated), the TGI in assay [1], in assay [2], in [3], in [4], in assay [5] and in [6] was > 100 µM in each case. Further, the TGI in [7], in assay [8] and in assay [9] was > 100 µM each time.

Turning to `Cc1ccc(NC(=O)SCCC(=O)O)cc1NC(=O)SCCC(=O)O`, the TGI in [1], in assay [2], in [3], in assay [4], in [5] and in [6] was > 100 µM in each case. The TGI in assay [7] and in assay [8] was > 100 µM in each case.

`COC(=O)/C(=C/N1CCN(C(=O)c2ccco2)C1=S)C(C)=O`: the GI50 in assay [1] was 5.93 µM; in assay [2], 5.84 µM; in [3] it was 12.2 µM; in [4], 17.2 µM; in assay [5], 3.9 µM; in assay [6], 20.6 µM. Also, the GI50 in assay [7] was 4.41 µM; in assay [9], 5.64 µM. Moreover, the TGI came to 22.4 µM in assay [1]; 25.6 µM in assay [2]; 31.9 µM in assay [3]; 39.3 µM in [4]; 12.5 µM in assay [5]; 42.8 µM in [6]. In addition, the TGI in [7] was 9.49 µM; in assay [9], 50.4 µM.

In the case of `COc1ccc(OC)c(CCc2cc(OC)c(OC)cc2C)c1`, the TGI in [1], in [2], in assay [3], in assay [4], in [5] and in assay [6] was > 100 µM throughout. Further, the TGI in assay [8] and in assay [9] was > 100 µM in each case.
